{
  "source": "ChEMBL document CHEMBL3779849",
  "about": "“Exploration of the P3 region of PEXEL peptidomimetics leads to a potent inhibitor of the Plasmodium protease, plasmepsin V” (Bioorg Med Chem, 2016)",
  "key": {"[1]": {"experiment": "Inhibition of 2.5 ng recombinant FLAG-tagged Plasmodium vivax PMV expressed in High Five insect cells assessed as fluorogenic substrate cleavage using 12 uM DABCYL-RNKRTLAQKQ-E-EDANS as fluorogenic substrate after 120 mins by fluorescence plate reader method"}, "Plasmodium falciparum [2]": {"test_system": "Plasmodium falciparum", "experiment": "Antimalarial activity against ring-stage Plasmodium falciparum 3D7 infected in human erythrocytes assessed as parasite viability after 72 hrs by LDH assay", "type": "functional, organism-based", "details": "3D7, 72 h"}, "HepG2": {"test_system": "HepG2", "experiment": "Cytotoxicity against human HepG2 cells assessed as cell viability after 48 hrs by Cell Titer-Glo assay", "type": "cell-based", "details": "HepG2, 48 h"}, "[3]": {"target": "Plasmepsin V (Plasmodium falciparum (isolate 3D7)) (UniProt Q8I6Z5)", "sequence (Q8I6Z5 whole entry, looked up)": "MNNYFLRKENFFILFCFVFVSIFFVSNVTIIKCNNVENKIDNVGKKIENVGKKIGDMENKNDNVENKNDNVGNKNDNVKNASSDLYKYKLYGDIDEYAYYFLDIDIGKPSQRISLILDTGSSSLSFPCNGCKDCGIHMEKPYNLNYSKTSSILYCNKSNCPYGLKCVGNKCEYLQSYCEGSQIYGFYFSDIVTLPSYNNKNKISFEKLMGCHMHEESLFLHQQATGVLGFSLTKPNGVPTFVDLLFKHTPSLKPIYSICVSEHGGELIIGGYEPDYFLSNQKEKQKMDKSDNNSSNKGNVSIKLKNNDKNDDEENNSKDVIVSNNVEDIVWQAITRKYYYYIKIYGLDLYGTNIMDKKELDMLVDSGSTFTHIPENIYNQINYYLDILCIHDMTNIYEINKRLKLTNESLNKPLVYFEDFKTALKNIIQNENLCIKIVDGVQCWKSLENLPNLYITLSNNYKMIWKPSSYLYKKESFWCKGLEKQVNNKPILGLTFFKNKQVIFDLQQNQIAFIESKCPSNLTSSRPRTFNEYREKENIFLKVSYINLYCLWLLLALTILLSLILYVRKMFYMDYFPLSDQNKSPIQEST", "experiment": "Inhibition of PMV in trophozoite stage of Plasmodium flaciparum 3D7 expressing PfEMP3-GFP infected in human erythrocytes assessed as PEXEL processing of PfEMP3 at 20 uM after 5 hrs by Western blot method", "type": "cell-based", "details": "Plasmodium falciparum 3D7"}, "Plasmodium falciparum [4]": {"test_system": "Plasmodium falciparum", "experiment": "Antimalarial activity against Plasmodium falciparum 3D7 infected in human erythrocytes assessed as parasite viability after 72 hrs by flow cytometry", "type": "functional, organism-based", "details": "3D7, 72 h"}, "[5]": {"target": "Plasmepsin V (Plasmodium falciparum (isolate 3D7)) (UniProt Q8I6Z5)", "experiment": "Inhibition of PMV in trophozoite stage of Plasmodium flaciparum 3D7 expressing PfEMP3-GFP infected in human erythrocytes assessed as PEXEL processing of PfEMP3 at 1 to 20 uM after 5 hrs by Western blot method", "type": "cell-based", "details": "Plasmodium falciparum 3D7"}, "[6]": {"experiment": "Inhibition of 1 ng recombinant FLAG-tagged Plasmodium vivax PMV expressed in High Five insect cells assessed as fluorogenic substrate cleavage using 7.5 uM DABCYL-RNKRTLAQKQ-E-EDANS as fluorogenic substrate after 120 mins by fluorescence plate reader method"}, "Plasmepsin V": {"target": "Plasmepsin V (Plasmodium falciparum (isolate 3D7), UniProt Q8I6Z5)", "sequence (Q8I6Z5 whole entry)": "as the sequence (Q8I6Z5 whole entry, looked up) above", "experiment": "Inhibition of Plasmodium falciparum PMV assessed as fluorogenic substrate cleavage using DABCYL-RNKRTLAQKQ-E-EDANS as fluorogenic substrate after 120 mins by fluorescence plate reader method"}, "[7]": {"experiment": "Ratio of EC50 for ring-stage Plasmodium falciparum 3D7 to IC50 for recombinant FLAG-tagged Plasmodium vivax PMV"}},
  "note": "Active and inactive are the calls of the source. No cut-off for these calls is given here. Non-standard residues stand in square brackets, D forms with d. Residues, ends and D or L forms follow the SMILES beside them. *: point of attachment. Phe(4-guanidino) = N=C(N)Nc1ccc(C[C@H](N)C(=O)O)cc1; Arg(NO2) = N=C(NCCC[C@H](N)C(=O)O)N[N+](=O)[O-]; Phe(4-NH2) = Nc1ccc(C[C@H](N)C(=O)O)cc1; Sta = CC(C)C[C@H](N)[C@@H](O)CC(=O)O; Arg(Me) = CNC(=N)NCCC[C@H](N)C(=O)O; Cit = NC(=O)NCCC[C@H](N)C(=O)O; NHPhenethyl = c1ccc(CCN*)cc1; Orn = NCCC[C@H](N)C(=O)O; Cbz = O=C(OCc1ccccc1)*; Ms = CS(=O)(=O)*",
  "data": [
    {"smiles": "CC(C)C[C@H](NC(=O)[C@@H](NC(=O)[C@H](CCCNC(N)=O)NC(=O)OCc1ccccc1)C(C)C)[C@@H](O)CC(=O)NCCc1ccccc1", "note": "(Cbz-[Cit]-Val-[Sta]-NHPhenethyl)", "values": [
      {"measurement": "IC50", "setting": "[1]", "value": "> 50", "unit": "µM"}
    ]},
    {"smiles": "CC(C)C[C@H](NC(=O)[C@@H](NC(=O)[C@H](Cc1ccc(NC(=N)N)cc1)NC(=O)OCc1ccccc1)C(C)C)[C@@H](O)CC(=O)NCCc1ccccc1", "note": "(Cbz-[Phe(4-guanidino)]-Val-[Sta]-NHPhenethyl)", "values": [
      {"measurement": "IC50", "setting": "[1]", "value": "> 50", "unit": "µM"}
    ]},
    {"smiles": "CC(C)C[C@H](NC(=O)[C@@H](NC(=O)[C@H](CCCN(C)C(=N)N)NC(=O)OCc1ccccc1)C(C)C)[C@@H](O)CC(=O)NCCc1ccccc1", "values": [
      {"measurement": "IC50", "setting": "[1]", "value": "> 50", "unit": "µM"}
    ]},
    {"smiles": "CC(C)C[C@H](NC(=O)[C@@H](NC(=O)[C@H](Cc1ccc(N)cc1)NC(=O)OCc1ccccc1)C(C)C)[C@@H](O)CC(=O)NCCc1ccccc1", "note": "(Cbz-[Phe(4-NH2)]-Val-[Sta]-NHPhenethyl)", "values": [
      {"measurement": "IC50", "setting": "[1]", "value": "> 50", "unit": "µM"}
    ]},
    {"smiles": "CC(C)C[C@H](NC(=O)[C@@H](NC(=O)[C@H](CCCNC(=N)NO)NC(=O)OCc1ccccc1)C(C)C)[C@@H](O)CC(=O)NCCc1ccccc1", "values": [
      {"measurement": "IC50", "setting": "[1]", "value": 3.88, "unit": "µM"},
      {"measurement": "EC50", "setting": "Plasmodium falciparum [2]", "value": 3.97, "unit": "µM"},
      {"measurement": "EC50", "setting": "HepG2", "value": "> 50", "unit": "µM"},
      {"measurement": "inhibition", "setting": "[3]", "value": "inactive"}
    ]},
    {"smiles": "CC(C)C[C@H](NC(=O)[C@@H](NC(=O)[C@H](CCCNC(=N)N)NC(=O)OCc1ccccc1)C(C)C)[C@@H](O)CC(=O)NCCc1ccccc1", "note": "(Cbz-Arg-Val-[Sta]-NHPhenethyl)", "values": [
      {"measurement": "IC50", "setting": "[1]", "value": 0.128, "unit": "µM"},
      {"measurement": "EC50", "setting": "Plasmodium falciparum [2]", "value": 3.26, "unit": "µM"},
      {"measurement": "EC50", "setting": "HepG2", "value": "> 50", "unit": "µM"},
      {"measurement": "inhibition", "setting": "[3]", "value": "Active"}
    ]},
    {"smiles": "CC(C)C[C@H](NC(=O)[C@@H](NC(=O)[C@H](CCONC(=N)N)NC(=O)OCc1ccccc1)C(C)C)[C@H](O)CC(=O)NCCc1ccccc1", "values": [
      {"measurement": "IC50", "setting": "[1]", "value": 2.74, "unit": "µM"},
      {"measurement": "EC50", "setting": "Plasmodium falciparum [2]", "value": 5.65, "unit": "µM"},
      {"measurement": "EC50", "setting": "HepG2", "value": "> 50", "unit": "µM"},
      {"measurement": "inhibition", "setting": "[3]", "value": "inactive"}
    ]},
    {"smiles": "CC(C)C[C@H](NC(=O)[C@@H](NC(=O)[C@H](Cc1cccc(N)c1)NC(=O)OCc1ccccc1)C(C)C)[C@@H](O)CC(=O)NCCc1ccccc1", "values": [
      {"measurement": "IC50", "setting": "[1]", "value": "> 50", "unit": "µM"}
    ]},
    {"smiles": "CC(C)C[C@H](NC(=O)[C@@H](NC(=O)[C@H](CCC(=O)NC(=N)N)NC(=O)OCc1ccccc1)C(C)C)[C@@H](O)CC(=O)NCCc1ccccc1", "values": [
      {"measurement": "IC50", "setting": "[1]", "value": 41.6, "unit": "µM"},
      {"measurement": "EC50", "setting": "Plasmodium falciparum [2]", "value": 3.33, "unit": "µM"},
      {"measurement": "EC50", "setting": "HepG2", "value": "> 50", "unit": "µM"}
    ]},
    {"smiles": "CC(C)C[C@H](NC(=O)[C@@H](NC(=O)[C@H](CCCNC(=N)N[N+](=O)[O-])NC(=O)OCc1ccccc1)C(C)C)[C@@H](O)CC(=O)NCCc1ccccc1", "note": "(Cbz-[Arg(NO2)]-Val-[Sta]-NHPhenethyl)", "values": [
      {"measurement": "IC50", "setting": "[1]", "value": "> 50", "unit": "µM"}
    ]},
    {"smiles": "CCN(CC)CCCC(C)Nc1ccnc2cc(Cl)ccc12", "note": "(stereo not given) [CHLOROQUINE]", "values": [
      {"measurement": "EC50", "setting": "Plasmodium falciparum [2]", "value": 0.012, "unit": "µM"}
    ]},
    {"smiles": "CC(C)C[C@H](NC(=O)[C@@H](NC(=O)[C@H](CCCNC(C)C)NC(=O)OCc1ccccc1)C(C)C)[C@@H](O)CC(=O)NCCc1ccccc1", "values": [
      {"measurement": "IC50", "setting": "[1]", "value": "> 50", "unit": "µM"}
    ]},
    {"smiles": "CC(=N)NCCC[C@H](NC(=O)OCc1ccccc1)C(=O)N[C@H](C(=O)N[C@@H](CC(C)C)[C@@H](O)CC(=O)NCCc1ccccc1)C(C)C", "values": [
      {"measurement": "IC50", "setting": "[1]", "value": 40.3, "unit": "µM"},
      {"measurement": "EC50", "setting": "Plasmodium falciparum [2]", "value": 21.4, "unit": "µM"},
      {"measurement": "EC50", "setting": "HepG2", "value": "> 50", "unit": "µM"},
      {"measurement": "inhibition", "setting": "[3]", "value": "inactive"}
    ]},
    {"smiles": "CC(C)C[C@H](NC(=O)[C@@H](NC(=O)[C@H](CCCNC(=N)NC#N)NC(=O)OCc1ccccc1)C(C)C)[C@@H](O)CC(=O)NCCc1ccccc1", "values": [
      {"measurement": "IC50", "setting": "[1]", "value": "> 50", "unit": "µM"}
    ]},
    {"smiles": "CC(C)C[C@H](NC(=O)[C@@H](NC(=O)[C@H](Cc1cccc(NC(=N)N)c1)NC(=O)OCc1ccccc1)C(C)C)[C@@H](O)CC(=O)NCCc1ccccc1", "values": [
      {"measurement": "IC50", "setting": "[1]", "value": "> 50", "unit": "µM"}
    ]},
    {"smiles": "CC(C)C[C@H](NC(=O)[C@@H](NC(=O)[C@H](CCCNS(C)(=O)=O)NC(=O)OCc1ccccc1)C(C)C)[C@@H](O)CC(=O)NCCc1ccccc1", "note": "(Cbz-[Orn](Ms)-Val-[Sta]-NHPhenethyl)", "values": [
      {"measurement": "IC50", "setting": "[1]", "value": "> 50", "unit": "µM"}
    ]},
    {"smiles": "CC(C)C[C@H](NC(=O)[C@@H](NC(=O)[C@H](CCONC(=N)N)NC(=O)OCc1ccccc1)C(C)C)[C@@H](O)CC(=O)NCCc1ccccc1", "values": [
      {"measurement": "EC50", "setting": "Plasmodium falciparum [4]", "value": 0.4, "unit": "µM"},
      {"measurement": "IC50", "setting": "[1]", "value": 0.01, "unit": "µM"},
      {"measurement": "EC50", "setting": "Plasmodium falciparum [2]", "value": 0.229, "unit": "µM"},
      {"measurement": "EC50", "setting": "HepG2", "value": "> 50", "unit": "µM"},
      {"measurement": "inhibition", "setting": "[5]", "value": "Active"},
      {"measurement": "IC50", "setting": "[6]", "value": 0.0016, "unit": "µM"},
      {"measurement": "IC50", "setting": "Plasmepsin V", "value": 0.0008, "unit": "µM"},
      {"measurement": "Ratio", "setting": "[7]", "value": 25}
    ]},
    {"smiles": "CC(=O)NCCC[C@H](NC(=O)OCc1ccccc1)C(=O)N[C@H](C(=O)N[C@@H](CC(C)C)[C@@H](O)CC(=O)NCCc1ccccc1)C(C)C", "note": "(Cbz-[Orn](Ac)-Val-[Sta]-NHPhenethyl)", "values": [
      {"measurement": "IC50", "setting": "[1]", "value": "> 50", "unit": "µM"}
    ]},
    {"smiles": "CNC(=N)NCCC[C@H](NC(=O)OCc1ccccc1)C(=O)N[C@H](C(=O)N[C@@H](CC(C)C)[C@@H](O)CC(=O)NCCc1ccccc1)C(C)C", "note": "(Cbz-[Arg(Me)]-Val-[Sta]-NHPhenethyl)", "values": [
      {"measurement": "IC50", "setting": "[1]", "value": 37.7, "unit": "µM"},
      {"measurement": "EC50", "setting": "Plasmodium falciparum [2]", "value": 12.7, "unit": "µM"},
      {"measurement": "EC50", "setting": "HepG2", "value": "> 50", "unit": "µM"}
    ]},
    {"smiles": "CONC(=N)NCCC[C@H](NC(=O)OCc1ccccc1)C(=O)N[C@H](C(=O)N[C@@H](CC(C)C)[C@@H](O)CC(=O)NCCc1ccccc1)C(C)C", "values": [
      {"measurement": "IC50", "setting": "[1]", "value": 18, "unit": "µM"},
      {"measurement": "EC50", "setting": "Plasmodium falciparum [2]", "value": 1.97, "unit": "µM"},
      {"measurement": "EC50", "setting": "HepG2", "value": "> 50", "unit": "µM"}
    ]}
  ]
}
